Measurements published in patent US5939403A, “Keratan sulfate oligosaccharide fraction and pharmaceutical containing the same” (Seikagaku Corporation, priority 1994, dated 1999).

Key:
carrageenin pleurisy = experiment: Carrageenin pleurisy model; format: in vivo, Female S.D. rats; conditions: dexamethasone acetate 150 μg/kg s.c.; six hours
Description: The effect of the keratan sulfate oligosaccharide was examined with the carrageenin pleurisy model of rats which is generally used for evaluation of anti-inflammatory agents.
Female S.D. rats (n=37) of about 150 to 170 g weight were used for the test. The λ-carrageenin (Sigma) was dissolved in saline to a concentration of 2%, and the solution was filtered with a 0.8 μm filter. The carrageenin solution obtained was intrathoracically administered at 100 μl/animal to prepare the pleurisy model.
To the pleurisy model of rats (n=19) described above, the keratan sulfate tetrasaccharide (I) dissolved in PBS was subcutaneously (s.c.) administered in 20 mg/kg or 10 mg/kg dose. And as the positive control, steroid (dexamethasone acetate; Banyu Pharmaceutical) was subcutaneously administered to the eight rats described above in 150 μg/kg which was the clinical dose. As the negative control, PBS was subcutaneously administered to the 10 rats. Each administration was carried out immediately after the administration of carrageenin.
Each rat was anatomized six hours after the administration of λ-carrageenin. The thoracic cavity of the rats was opened to collect the retained pleural fluid using a 2-ml syringe with probe. After that, inside of the thoracic cavity was washed with 1 ml of saline, and the washing solution was recovered. The volume of the pleural fluid recovered with the syringe was determined, and the number of leukocyte (cell number) in the pleural fluid was determined by an automatic cytometer. The results are be shown in FIG. 8 and FIG. 9, respectively. In the figures, * and ** represent that they have the significant difference with p<0.05 and p<0.01, respectively (wherein "p" means a level of significance by the Duncan test).

[1] = system: foot edema reversed passive Arthus reaction; experiment: Foot edema reversed passive Arthus reaction; format: in vivo, Male Crj:SD rats
Description: The effect of the keratan sulfate oligosaccharide was examined on the foot edema reversed passive Arthus reaction of rats, which is a type III allergic inflammation model. That is, the rabbit antiovalbumin serum was subcutaneously administered to the planta of the rats which were previously subjected to the administration of the test substances, furthermore ovalbumin was administered by injection into the caudal vein thereof to induce inflammation (edema), and the inhibitory effect on edema of the test substances was examined.
Male Crj:SD rats of five weeks old were subjected to a fast of about 17 hours after a week period of quarantine, and, before inducing inflammation, subjected to the administration of the purified keratan sulfate tetrasaccharide (I) which was prepared in Example 1, indomethacin (Sigma; Lot No. 19F0018), or dexamethasone (Banyu Pharmaceutical); Decadron injection; Lot No. 8D307P) as the test substances, or saline (Otsuka Pharmaceutical; Lot No. K3H72) as the negative control. The keratan sulfate tetrasaccharide (I) and dexamethasone were dissolved in saline, respectively, and the indomethacin was dissolved in 0.5% sodium carboxymethylcellulose (CMC-Na; Wako Pure Chemical Industries; Lot No. PTN1418) in use. The volume of dose was 0.5 ml per 100 g weight in each test. Concerning the route of administration, the keratan sulfate tetrasaccharide (I), saline, and dexamethasone were administered from the caudal vein, and the indomethacin was orally administered. And the substances except for indomethacin were administered by the blind method.
The dose and administration schedule of each test substance were as follows. Each group consisted of five animals.
The rabbit antiovalbumin serum was subcutaneously administered to each of the rats described above on the planta thereof, and ovalbumin was further administered by injection into the caudal vein to induce inflammation foot edema. The antiserum used was prepared as follows. That is, to the regions of back of rabbits, 1 ml of the equivalently mixed solution (emulsion) of the saline containing 2% ovalbumin (10 mg per one animal, Egg Albumin 5×Cryst, Lot No. P93601; Seikagaku Corporation) and the Freund's complete adjuvant (FCA) was intradermally injected once a week three times totally to subject themselves to sensitization. About 34 days after the last sensitization, the blood was drawn to obtain the antiserum. The antibody titer of the antiserum obtained was determined by the double layer method. Namely, the determination was performed using the white precipitation reaction of the antiserum diluted with saline and the saline containing 0.1% ovalbumin (1 mg/ml) as the indicator. As a result, the antibody titer of the antiserum obtained was x2^7.
After the period which is designed for each group, each 0.1 ml of the sixfold diluted antiserum was subcutaneously administered to the planta of left rear foot of the rats which were subjected to the administration of each test substance. Then, the saline containing 0.5% ovalbumin (25 mg/5 ml/kg) was administered into the caudal vein to induce inflammation. The volume of the treated feet in each group was determined before inducing inflammation, and one, two, three and four hours after inducing inflammation by a foot volume determining device (TK-101, Unicom) to yield the foot edematization rate from the difference from the value before the induction, and the edematization inhibitory rate of the test substance administered group to the control group was calculated. In each edematization rate obtained, the difference between the averages was tested by the minimum significant difference test. The foot edematization rate and the edematization inhibitory rate of each administered group are shown in Table 9, and the foot edematization rate of the administered groups which was subjected to the administration of the agent at five minutes and at three hours before inducing inflammation are shown in FIG. 6 and FIG. 7, respectively. […]

In the case of `CC(=O)OCC(=O)[C@@]1(O)[C@H](C)C[C@H]2[C@@H]3CCC4=CC(=O)C=C[C@]4(C)[C@@]3(F)[C@@H](O)C[C@@]21C` [Dexamethasone Acetate, dexamethasone acetate, reference compound], the “number of leukocyte in pleural fluid (FIG. 9)” value (carrageenin pleurisy) is reported as “significantly less than that in the control group” and the “quantity of pleural fluid (FIG. 8)” value (carrageenin pleurisy) is reported as “significantly less than that in the negative control group”.

`C[C@@H]1C[C@H]2[C@@H]3CCC4=CC(=O)C=C[C@]4(C)[C@@]3(F)[C@@H](O)C[C@]2(C)[C@@]1(O)C(=O)CO` [Dexamethasone, dexamethasone, reference compound] was tested, and the “Inhibitory Rate” value ([1]; 1 Hour Later, dexamethasone 1 mg/kg i.v. at 3 hours before inducing edema) was 47.8%, the “Edematization Rate” value ([1]; 1 Hour Later, dexamethasone 1 mg/kg i.v. at 3 hours before inducing edema, P < 0.01, control 40.9) was 21.3 ± 3.1% and the “Inhibitory Rate” value ([1]; 2 Hours Later, dexamethasone 1 mg/kg i.v. at 3 hours before inducing edema) was 31.7%. For the same compound, the “Edematization Rate” value ([1]; 2 Hours Later, dexamethasone 1 mg/kg i.v. at 3 hours before inducing edema, P < 0.01, control 46.3) was 31.6 ± 2.2%, the “Inhibitory Rate” value ([1]; 3 Hours Later, dexamethasone 1 mg/kg i.v. at 3 hours before inducing edema) was 39.9% and the “Edematization Rate” value ([1]; 3 Hours Later, dexamethasone 1 mg/kg i.v. at 3 hours before inducing edema, P < 0.01, control 51.2) was 30.7 ± 1.5%. For the same compound, the “Inhibitory Rate” value ([1]; 4 Hours Later, dexamethasone 1 mg/kg i.v. at 3 hours before inducing edema) was 58.1%, the “Edematization Rate” value ([1]; 4 Hours Later, dexamethasone 1 mg/kg i.v. at 3 hours before inducing edema, P < 0.01, control 44.9) was 18.8% and the “foot edematization rate, significance (result in words)” value ([1]; dexamethasone 1 mg/kg, three hours before) was “significantly low values were observed at any determination point between one and four hours after inducing inflammation”.

In the case of `COc1ccc2c(c1)c(CC(=O)O)c(C)n2C(=O)c1ccc(Cl)cc1` [Indomethacin, indomethacin, reference compound], the “Inhibitory Rate” value ([1]; 1 Hour Later, 5 mg/kg oral at 30 minutes before inducing edema) is reported as 13.5%, the “Edematization Rate” value ([1]; 1 Hour Later, 5 mg/kg oral at 30 minutes before inducing edema, control 40.9) is reported as 35.4 ± 1.6% and the “Inhibitory Rate” value ([1]; 2 Hours Later, 5 mg/kg oral at 30 minutes before inducing edema) is reported as 17.5%. The “Edematization Rate” value ([1]; 2 Hours Later, 5 mg/kg oral at 30 minutes before inducing edema, P < 0.05, control 46.3) was 38.2 ± 2.9%, the “Inhibitory Rate” value ([1]; 3 Hours Later, 5 mg/kg oral at 30 minutes before inducing edema) was 9.0% and the “Edematization Rate” value ([1]; 3 Hours Later, 5 mg/kg oral at 30 minutes before inducing edema, control 51.2) was 46.4 ± 2.8%. The “Inhibitory Rate” value ([1]; 4 Hours Later, 5 mg/kg oral at 30 minutes before inducing edema) was 13.8%, the “Edematization Rate” value ([1]; 4 Hours Later, 5 mg/kg oral at 30 minutes before inducing edema, P < 0.05, control 44.9) was 38.7 ± 3.1% and the “foot edematization rate, significance (result in words)” value ([1]; indomethacin 5 mg/kg oral, 30 minutes before) was “significantly low values were observed after two hours and after four hours”.
